Legend:
[1] = tested on: high fat diet induced hyperlipidemia/NAFLD hamster model; test: Study A: high-fat/high-cholesterol diet induced hyperlipidemia/NAFLD hamster model, 7 weeks treatment; assay type: in vivo, Male Golden Syrian hamsters; settings: for HDL-c (serum) / LDL-c (serum) / PCSK9 (serum) / TC (serum) / TG (serum) / AI value (atherosclerosis index): mean ± SEM; for AI value (atherosclerosis index): AI = (TC − HDL-c)/HDL-c
Protocol: Various pre-clinical and clinical studies were performed to evaluate safety and efficacy of BUDCA. Primary and secondary pharmacodynamics studies were performed. Specific to nonclinical proof of concept for BUDCA in SHTG, the efficacy of BUDCA on hyperlipidemia/NAFLD was evaluated in two studies (Study A and Study B) using a high fat diet induced hyperlipidemia/NAFLD hamster model. Dietary induced changes in hamsters can be considered a valid model for dyslipidemia.
Male Golden Syrian hamsters were fed with a high-fat/high-cholesterol diet which contained 1.25% cholesterol, 20.06% grease (2.79% soybean oil, 17.27% cocoa butter) to establish the hyperlipidemia/NAFLD model. After 2 weeks of high-fat/high-cholesterol diet inducement, 24 hamsters with fasting TC level 17.96±1.70 mmol/L were selected and divided into 3 groups of 8 hamsters each (model group G1, 50 mg/kg/day BUDCA group G2, and 200 mg/kg/day BUDCA group G3). Eight hamsters comprising the normal control were fed with a normal chow diet.
The normal and Model control groups received vehicle (10 mL/kg 0.5% gum tragacanth solution), while the two BUDCA treatment groups received BUDCA, via intragastric administration for 7 weeks prior to sacrifice.
During the treatment period, blood was collected at weeks 1, 3, 5, and 7, for biochemical analysis including serum TC, TG, HDL-c, LDL-c, and liver enzymes. At the end of the study, animals were sacrificed for liver macroscopic observation and liver tissues were collected for histopathological evaluations and liver lipid contents.

[2] = tested on: high fat diet induced hyperlipidemia/NAFLD hamster model; test: Study B: hyperlipidemia/NAFLD hamster model, BUDCA versus UDCA or BBR-Cl, 6 weeks treatment; assay type: in vivo, golden hamster; settings: for Serum lipids HDL-c / Serum lipids LDL-c / Serum lipids TC / Serum lipids TG: 6 weeks daily oral, equimolar high doses: 200 mg/kg BUDCA; for Serum lipids HDL-c / Serum lipids LDL-c / Serum lipids TC / Serum lipids TG / Liver TC / Liver TG / Proportion of oil red O staining positive area / Steatosis Score of HE staining: 107.8 mg/kg UDCA, 102.2 mg/kg BBR-Cl, mean ± SEM; for Liver TC / Liver TG / Proportion of oil red O staining positive area / Steatosis Score of HE staining: 200 mg/kg BUDCA
Protocol: Study B was conducted using the same hamster model as described in Study A to evaluate the efficacy of BUDCA as well as to compare the effects of BUDCA with equivalent doses of either UDCA or BBR-Cl on their own. The model was induced with the same method as indicated in Study A. After the 2-week induction period, hamsters were randomized into treatment groups and continued the high fat diet for an additional 6-week period, concurrent with the daily oral administration of various doses of BUDCA (Low dose: […]; Medium dose: 100 mg/mL; […]), BBR-Cl on its own (Low dose: 51.1 mg/mL; […]), UDCA on its own (Low dose: 53.9 mg/mL; […]), or a 1:1 physical mixture of BBR-Cl and UDCA equivalent to a lower dose of BUDCA (105.0 mg/mL). A model control group continued the high fat diet and normal control group fed the standard diet were both administered the vehicle 0.5% carboxymethyl cellulose sodium (CMC-Na) solution. All animals were sacrificed for terminal evaluations at the end of the 6-week dosing period.
Endpoints evaluated included serum lipids (TC, TG, LDL-C, HDL-C), liver lipid content (TC and TG), liver injury (ALT, AST, total bile acids (TBA) and total bilirubin (TBIL)), liver weight (expressed relative to body weight as liver index), macroscopic observation and histopathology evaluation of the livers. Histopathology endpoints included pathologist observation, as well as numerical comparison via the nonalcoholic fatty liver disease activity score (NAS) and a fibrosis severity score.
Terminal endpoints in model control animals also confirmed increased liver weight and histopathology of the liver as evidenced by steatosis, hepatocytes swelling, punctate necrosis, inflammatory cell infiltration and local fibrosis. Therefore, the model was not only able to replicate key characteristics of the NAFLD disease spectrum in humans, but also hyperlipidemia.

[3] = tested on: overweight or obese adults with hypercholesterolemia; test: Study C: Phase 1b/2a study in overweight or obese adults with hypercholesterolemia, 28 days; assay type: in vivo, human; settings: BUDCA 250, 500 or 1000 mg BID, maximum reductions relative to placebo after 14 days
Protocol: In a Phase 1b/2a study, 50 overweight or obese adults with hypercholesterolemia were enrolled and treated with BUDCA for 28 days. The primary objective was to evaluate safety and tolerability of BUDCA. Given that the subjects enrolled in this study were obese with a history of hypercholesteremia, the focus of the efficacy and PD endpoints was lipid metabolism. Key entry criteria included BMI 2 and LDL-C, BUDCA 250 mg BID (N=12), BUDCA 500 mg BID (N=12), or BUDCA 1000 mg BID (N=12).
While all subjects had hypercholesteremia at baseline, TG levels generally ranged from normal to mild HTG (three subjects from each of placebo, BUDCA 500 mg BID, and BUDCA 1000 mg BID had TG values >200 mg/dL) and HDL-C levels were generally in the normal range.

[4] = tested on: adults with NASH and T2DM; test: Study D: randomized, double-blind, placebo-controlled Phase 2 study in adults with NASH and T2DM, 18 weeks; assay type: in vivo, human
Protocol: Study D was a randomized, double-blind, placebo-controlled Phase 2 study in adults with NASH and T2DM. The primary objective of this study was to evaluate the change from baseline in liver fat content as assessed by MRI-PDFF, but also evaluated changes in key cardiometabolic parameters, including lipids. Key entry criteria included the clinical diagnosis of NASH and T2DM and BMI >25.0 kg/m2. Subjects were randomized and treated with placebo (N=33), BUDCA 500 mg BID (N=33), or BUDCA 1000 mg BID (N=34) for 18 weeks (Harrison 2021).
Demographic characteristics were generally well balanced among treatment groups. The median age overall was 57 years (range: 26 to 75 years), and there were 72% females and 28% males. Most subjects were White (91%) and not Hispanic or Latino (62%). Mean baseline weight and BMI were similar across treatment groups. On average, LDL-C was elevated and near the upper limit of the normal range and TGs were elevated above the normal. Baseline values for HbA1c, ALT, GGT, liver fat content, and cT1 were similar across treatment groups.
Study D evaluated the effects of BUDCA on lipids as secondary efficacy endpoints. On average, subjects had near-normal LDL-C at baseline with borderline-high levels of TG. While the average values were generally similar across treatment groups, it should be noted that LDL-C was lower in the BUDCA 500 mg BID treatment group while TGs were lower in the BUDCA 1000 mg BID treatment group (Table 6). […] Reductions in TGs with the […] dose were statistically significant compared with placebo. Reduced TG levels were paralleled with a reduction in LDL-C after 18 weeks of treatment with BUDCA 1000 mg BID (−13%), but not with BUDCA 500 mg BID (3%) or with placebo (0%).

[5] = tested on: subjects with HTG; test: Pooled analysis of Study C and Study D in subjects with HTG (baseline TGs above 200 mg/dL); assay type: in vivo, human; settings: for placebo-corrected median percent change from baseline in TGs: end of treatment
Protocol: Efficacy was also tested in two clinical studies that established merits for further clinical study in patients with SHTG: Study C was conducted in adults with hypercholesterolemia and […] and T2DM. A pooled analysis was conducted based on these two studies specifically evaluating the data from subjects who had HTG at baseline (TG 200 mg/dL).
To further investigate the potential of BUDCA for lowering TGs in patients with elevated TGs, a pooled analysis across studies Study C and Study D was conducted focusing on the subjects with baseline TGs above 200 mg/dL (HTG) (Table 6). The analysis pooled the baseline and end of treatment timepoints for this evaluation as the two studies had different durations (4 weeks vs 18 weeks).

[6] = 50 mg/kg/day BUDCA intragastric, 7 weeks
[7] = 200 mg/kg/day BUDCA intragastric, 7 weeks
[8] = both doses of BUDCA, HTG subgroup

Compound: COc1ccc2cc3[n+](cc2c1OC)CCc1cc2c(cc1-3)OCO2.C[C@H](CCC(=O)[O-])[C@H]1CC[C@H]2[C@@H]3[C@@H](O)C[C@@H]4C[C@H](O)CC[C@]4(C)[C@H]3CC[C@]12C [BUDCA, Berberine Ursodeoxycholate]
- HDL-c (serum) [1, 6]: 3.42 ± 0.28 mmol/L
- LDL-c (serum) [1, 6]: 2.95 ± 1.72 mmol/L
- PCSK9 (serum) [1, 6]: 124.9 ± 16.8 pg/mL
- TC (serum) [1, 6]: 9.78 ± 2.58 mmol/L
- TG (serum) [1, 6]: 3.88 ± 1.21 mmol/L
- Liver TC ([1]; 50 mg/kg/day BUDCA, 7 weeks): 14.62 ± 4.89 mg/g
- Liver TG ([1]; 50 mg/kg/day BUDCA, 7 weeks): 5.40 ± 2.64 mg/g
- AI value (atherosclerosis index) ([1]; 50 mg/kg/day BUDCA, 7 weeks): 1.88 ± 0.83
- HDL-c (serum) [1, 7]: 2.53 ± 0.29 mmol/L
- LDL-c (serum) [1, 7]: 1.23 ± 0.28 mmol/L
- PCSK9 (serum) [1, 7]: 179.0 ± 30.9 pg/mL
- TC (serum) [1, 7]: 4.95 ± 0.84 mmol/L
- TG (serum) [1, 7]: 1.90 ± 0.66 mmol/L
- Liver TC ([1]; 200 mg/kg/day BUDCA, 7 weeks): 3.82 ± 1.78 mg/g
- Liver TG ([1]; 200 mg/kg/day BUDCA, 7 weeks): 5.61 ± 1.98 mg/g
- AI value (atherosclerosis index) ([1]; 200 mg/kg/day BUDCA, 7 weeks): 0.95 ± 0.19
- serum PCSK9 levels compared to the Model control group ([1]; 7-weeks of BUDCA treatment, P<0.05): significantly reduced
- serum TG, TC, LDL-c levels, and AI compared to the model group ([1]; BUDCA 50 and 200 mg/kg/day, 7 weeks, P<0.01, dose-dependent): significantly reduced
- liver contents of TG and TC compared to the model group ([1]; both doses of BUDCA, 7 weeks, P<0.01): significantly decreased
- Serum lipids HDL-c [2]: 4.25 ± 0.40 mmol/L
- Serum lipids LDL-c [2]: 1.26 ± 0.15 mmol/L
- Serum lipids TC [2]: 7.03 ± 0.73 mmol/L
- Serum lipids TG [2]: 2.06 ± 0.39 mmol/L
- Liver TC ([2]; 6 weeks): 4.59 ± 0.84 mg/g
- Liver TG ([2]; 6 weeks): 3.92 ± 0.50 mg/g
- Proportion of oil red O staining positive area ([2]; 6 weeks): 1.18 ± 0.69 %
- Steatosis Score of HE staining ([2]; 6 weeks): 1.00 ± 0.38
- serum TC and TG, LDL-C, ALT, AST, TBA, TBIL, liver weight, liver TC and TG, NAS score, and fibrosis (score and % area) ([2]; relative to model control animals, low, medium and high dose BUDCA, 6 weeks): reduced all the following parameters in a dose dependent manner
- beneficial effects on most parameters, including serum lipids and liver lipid deposition, compared with the individual moieties ([2]; versus equivalent doses of UDCA or BBR administered alone): greater than those achieved with either UDCA or BBR when administered alone
- serum lipid levels [3]: decreased in a dose-dependent fashion
- HbA1c change from baseline ([4]; 18 weeks of BUDCA treatment (500 and 1000 mg BID), in contrast to increase with placebo): Significant dose dependent reductions
- LDL-C, change from baseline to week 18 ([4]; BUDCA 500 mg BID, 18 weeks): 3%
- TG levels, change from baseline to week 18 ([4]; BUDCA 500 mg BID, 18 weeks): −9%
- mean change in fasting plasma glucose ([4]; BUDCA 500 mg BID, 18 weeks): -18 mg/dL
- LDL-C, change from baseline to week 18 ([4]; BUDCA 1000 mg BID, 18 weeks): −13%
- TG levels, change from baseline to week 18 ([4]; BUDCA 1000 mg BID, 18 weeks): −11%
- mean change in fasting plasma glucose ([4]; BUDCA 1000 mg BID, 18 weeks): -22 mg/dL
- change from baseline in body weight ([4]; BUDCA 1000 mg BID, 18 weeks, p<0.05 vs placebo): -3.5 kg
- placebo-corrected median percent change from baseline in TGs ([5]; BUDCA 500 mg BID, 95% CI (−52.63, 17.93)): −12.3%
- HDL-C at the end of treatment ([5]; BUDCA 1000 mg BID, HTG population): increase in HDL-C
- placebo-corrected median percent change from baseline in TGs ([5]; BUDCA 1000 mg BID, 95% CI (−55.57, 16.61)): −17.7%
- change from baseline to end of treatment in body weight ([5]; BUDCA 1000 mg BID, subjects with HTG, based solely on one of the two studies): -4.6 kg
- LDL-C at the end of treatment ([5]; both doses of BUDCA (500 and 1000 mg BID), HTG population): decrease in LDL-C
- HbA1c [5, 8]: no worsening of HbA1c
- fasting plasma glucose [5, 8]: decrease in fasting plasma glucose

Compound: C[C@H](CCC(=O)O)[C@H]1CC[C@H]2[C@@H]3[C@@H](O)C[C@@H]4C[C@H](O)CC[C@]4(C)[C@H]3CC[C@]12C [UDCA]
- Serum lipids HDL-c [2]: 4.81 ± 0.15 mmol/L
- Serum lipids LDL-c [2]: 3.83 ± 0.47 mmol/L
- Serum lipids TC [2]: 10.13 ± 0.73 mmol/L
- Serum lipids TG [2]: 2.17 ± 0.18 mmol/L
- Liver TC ([2]; 6 weeks): 17.95 ± 4.04 mg/g
- Liver TG ([2]; 6 weeks): 11.24 ± 2.69 mg/g
- Proportion of oil red O staining positive area ([2]; 6 weeks): 11.72 ± 4.65 %
- Steatosis Score of HE staining ([2]; 6 weeks): 2.13 ± 0.35

Compound: COc1ccc2cc3[n+](cc2c1OC)CCc1cc2c(cc1-3)OCO2.[Cl-] [BBR-Cl]
- Serum lipids HDL-c [2]: 5.24 ± 0.30 mmol/L
- Serum lipids LDL-c [2]: 6.53 ± 1.10 mmol/L
- Serum lipids TC [2]: 14.86 ± 1.23 mmol/L
- Serum lipids TG [2]: 3.72 ± 0.37 mmol/L
- Liver TC ([2]; 6 weeks): 29.27 ± 4.47 mg/g
- Liver TG ([2]; 6 weeks): 19.18 ± 2.24 mg/g
- Proportion of oil red O staining positive area ([2]; 6 weeks): 18.97 ± 2.43 %
- Steatosis Score of HE staining ([2]; 6 weeks): 2.75 ± 0.16

— US20260224592A1, “COMPOSITIONS AND METHODS FOR TREATING SEVERE […]” (SHENZHEN HIGHTIDE BIOPHARMACEUTICAL LTD., priority 2023, published 2026)
